# Source: US7595401B2, “Therapeutic compounds and their use in cancer” (Myriad Pharmaceuticals, Inc., priority 2006, dated 2009)
# Target: purified human Hsp90
# Assay: Binding Assay: fluorescence polarization with BODIPY-labeled geldanamycin
# Conditions: BODIPY-GM 10 nM, Hsp90 30 nM
# How it was run: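 Fluorescence polarization competition with BODIPY-geldanamycin (10 nM final) and human Hsp90 (30 nM final) in HEPES-KOH pH 7.3 buffer with molybdate, NP-40, DTT; 2% DMSO, overnight at room temperature. Read 485/530 nm; percent inhibition from mP normalized to DMSO controls, fluorescent-compound points excluded.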
SMILES,IC50 [nM],% Inhibition at 5 μM Compound Concentration [%]
"Nc1ncnc2c1nc(Sc1cc3c(cc1Br)OCO3)n2CCc1cccnc1 [Example 151, 8-(6-Bromo-benzo[1,3]dioxol-5-ylsulfanyl)-9-(2-pyridin-3-yl-ethyl)-9H-purin-6-ylamine]",50,
"Nc1ncn(CCCn2cccc2)c2nc(Sc3ccc4c(c3)OCO4)nc1-2 [Example 52, 8-(benzo[1,3]dioxol-5-ylsulfanyl)-3-(3-pyrrol-1-yl-propyl)-3H-purin-6-ylamine]",,0
"CC1=NNC(=O)C1CCn1c(Sc2cc3c(cc2Br)OCO3)nc2c(N)ncnc21 (stereo not shown) [Example 406, 4-(2-{6-Amino-8-[(6-bromo-1,3-benzodioxol-5-yl)thio]-9H-purin-9-yl}ethyl)-5-methyl-2,4-dihydro-3H-pyrazol-3-one]",> 25000,
"CC(C)(C)OC(=O)N1C=C(CCn2c(Sc3cc4c(cc3Br)OCO4)nc3c(N)ncnc32)CCC1 [Example 462, tert-Butyl 5-(2-{6-amino-8-[(6-bromo-1,3-benzodioxol-5-yl)thio]-9H-purin-9-yl}ethyl)-3,4-dihydropyridine-1(2 H)-carboxylate]",7900,
"COc1ccc(OC)c(Sc2nc3c(N)ncn(CCc4ccc(N(C)C)cc4)c-3n2)c1 [Example 186, 8-(2,5-dimethoxy-phenylsulfanyl)-3-[2-(4-dimethylamino-phenyl)-ethyl]-3H-purin-6-ylamine]",,0
"N=C(N)N1CCC(CCn2cnc(N)c3nc(Sc4cc5c(cc4Br)OCO5)nc2-3)CC1 [Example 617, 4-(2-{6-Amino-8-[(6-bromo-1,3-benzodioxol-5-yl)thio]-3 H-purin-3-yl}ethyl)piperidine-1-carboximidamide]",,83.00
"COc1ccc(OC)c(Sc2nc3c(N)ncnc3n2CCc2ccccc2O)c1 [Example 231, 2-(2-{6-Amino-8-[(2,5-dimethoxyphenyl)thio]-9H-purin-9-yl}ethyl)phenol]",> 25000,
"CCOC(=O)[C@@H]1C[C@H](CCn2cnc(N)c3nc(Sc4cc5c(cc4Br)OCO5)nc2-3)CCN1C(=O)OC(C)(C)C (relative stereo) [Example 423, 1-tert-Butyl 2-ethyl cis-4-(2-{6-amino-8-[(6-bromo-1,3-benzodioxol-5-yl)thio]-3H-purin-3-yl}ethyl)piperidine-1,2-dicarboxylate]",,0
"N#CC1CCN(CCn2c(Sc3cc4c(cc3Br)OCO4)nc3ncnc(N)c32)CC1 [Example 576, 1-(2-{6-Amino-8-[(6-bromo-1,3-benzodioxol-5-yl)thio]-7 H-purin-7-yl}ethyl)piperidine-4 - carbonitrile]",,31
"Nc1ncnc2c1nc(Sc1ccc3c(c1)OCO3)n2CCc1ccccc1 [Example 4, 8-(Benzo[1,3]dioxol-5-ylsulfanyl)-9-phenethyl-9H-purin-6-ylamine]",650,75
"COc1ccc(OC)c(Sc2nc3c(N)ncn(CCC(NC(=O)OC(C)(C)C)C4CC4)c-3n2)c1 (stereo not shown) [Example 665, tert-Butyl(3-{6-amino-8-[(2,5-dimethoxyphenyl)thio]-3H-purin-3-yl}-1-cyclopropylpropyl)carbamate]",,0
"COc1cc(Sc2nc3c(N)ncnc3n2CCC2CCN(C=O)CC2)cc(OC)c1OC [Example 540, 4-(2-{6-Amino-8-[(3,4,5-trimethoxyphenyl)thio]-9 H-purin-9-yl}ethyl)piperidine-1-carbaldehyde]",> 5000,
"COc1ccc2sc(Sc3nc4c(N)ncnc4n3CCC3CCN(C(C)=O)CC3)nc2c1 [Example 658, 9-[2-(1-Acetylpiperidin-4-yl)ethyl]-8-[(5-methoxy-1,3-benzothiazol-2-yl)thio]-9H-purin-6-amine]",> 5000,
"CC(C)N1CCCCC1CCn1cnc(N)c2nc(Sc3cc4c(cc3Br)OCO4)nc1-2 (stereo not shown) [Example 446, 8-[(6-Bromo-1,3-benzodioxol-5-yl)thio]-3-[2-(1-isopropylpiperidin-2-yl)ethyl]-3H-purin-6-amine]",,4
"COc1cc(CCn2cnc(N)c3nc(Sc4cc(OC)ccc4OC)nc2-3)cc(OC)c1 [Example 194, 3-[2-(3,5-dimethoxy-phenyl)-ethyl]-8-(2,5-dimethoxy-phenylsulfanyl)-3H-purin-6-ylamine]",,0
"Nc1ncn(CCN2CCCCC2)c2nc(Sc3cc4c(cc3Br)OCO4)nc1-2 [Example 492, 8-[(6-Bromo-1,3-benzodioxol-5-yl)thio]-3-(2-piperidin-1-ylethyl)-3 H-purin-6-amine]",900,
"Nc1ncn(CCc2cccc3ccccc23)c2nc(Sc3cc4c(cc3Br)OCO4)nc1-2 [Example 158, 8-(6-bromo-benzo[1,3]dioxol-5-ylsulfanyl)-3-(2-naphthalen-1-yl-ethyl)-3H-purin-6-ylamine]",,0
"Nc1ncn(CCC2CCN(S(=O)(=O)C(F)(F)F)CC2)c2nc(Sc3cc4c(cc3Br)OCO4)nc1-2 [Example 388, 8-[(6-Bromo-1,3-benzodioxol-5-yl)thio]-3-(2-{1-[(trifluoromethyl)sulfonyl]piperidin 4-yl}ethyl)-3H-purin-6-amine]",,13

SMILES,IC50 [nM],% Inhibition at 5 μM Compound Concentration [%]
"Nc1ncnc2c1nc(Sc1cc3c(cc1Br)OCO3)n2CC[C@H]1CCCNC1 [Example 473, 8-[(6-Bromo-1,3-benzodioxol-5-yl)thio]-9-{2-[(3R)-piperidin-3-yl]ethyl}-9 H-purin-6-amine]",35,
"COc1ccc(OC)c(Sc2nc3c(N)ncn(CCC(NC(=O)OC(C)(C)C)C4CCSCC4)c-3n2)c1 (stereo not shown) [Example 669, tert-Butyl[3-{6-amino-8-[(2,5-dimethoxyphenyl)thio]-3H-purin-3-yl}-1-(tetrahydro-2H-thiopyran-4-yl)propyl]carbamate]",,10
"Nc1ncnc2c1nc(Sc1cc3c(cc1Br)OCO3)n2CCC1CCCCN1CC1CCCCC1 (stereo not shown) [Example 588, 8-[(6-Bromo-1,3-benzodioxol-5-yl)thio]-9-{2-[1-(cyclohexylmethyl)piperidin-2-yl]ethyl}-9 H-purin-6-amine]",> 2000,
"C=Cn1cnc(N)c2nc(Sc3cc4c(cc3Br)OCO4)nc1-2 [Example 499, 8-(6-bromo-benzo[1,3]dioxol-5-ylsulfanyl)-3-vinyl-3H-6-ylamine]",,21
"COc1ccc(OC)c(Sc2nc3c(N)ncnc3n2CCC2CCCN(C(=O)OC(C)(C)C)C2)c1 (stereo not shown) [Example 347, tert-Butyl 3-(2-{6-amino-8-[(2,5-dimethoxyphenyl)thio]-9H-purin-9-yl}ethyl)piperidine-1-carboxylate]",2500,
"CS(=O)(=O)NC(CCn1cnc(N)c2nc(Sc3cc4c(cc3Br)OCO4)nc1-2)C1CC1 (stereo not shown) [Example 675, N-(3-{6-Amino-8-[(6-bromo-1,3-benzodioxol-5-yl)thio]-3H-purin-3-yl}-1-cyclopropylpropyl)methanesulfonamide]",,49
"CCOC(=O)[C@@H]1C[C@H](CCn2cnc(N)c3nc(Sc4cc5c(cc4Br)OCO5)nc2-3)CCN1 (relative stereo) [Example 482, Ethyl cis-4-(2-{6-amino-8-[(6-bromo-1,3-benzodioxol-5-yl)thio]-3 H-purin-3-yl}ethyl)piperidine-2-carboxylate]",,0.0
"Nc1ncnc2c1nc(Sc1cc3c(cc1Br)OCO3)n2CCC12CC3CC(CC(C3)C1)C2 [Example 356, 9-[2-(1-Adamantyl)ethyl]-8-[(6-bromo-1,3-benzodioxol-5-yl)thio]-9H-purin-6-amine]",> 25000,
"Nc1ncn(CCc2ccc3ccccc3c2)c2nc(Sc3cc4c(cc3Br)OCO4)nc1-2 [Example 303, 8-[(6-Bromo-1,3-benzodioxol-5-yl)thio]-3-[2-(2-naphthyl)ethyl]-3H-purin-6-amine]",,21.0
"Nc1ncn(CCC2CCOCC2)c2nc(Sc3cc4c(cc3Br)OCO4)nc1-2 [Example 350, 8-[(6-Bromo-1,3-benzodioxol-5-yl)thio]-3-[2-(tetrahydro-2H-pyran-4-yl)ethyl]-3H-purin-6-amine]",,25
"COc1cc(Sc2nc3c(N)ncnc3n2CCc2ccccc2)c(OC)cc1Cl [Example 257, 8-[(4-Chloro-2,5-dimethoxyphenyl)thio]-9-(2-phenylethyl)-9H-purin-6-amine]",> 25000,
"Nc1ncnc2c1nc(Sc1ccc(NC=O)c(O)c1)n2CCc1ccccc1 [Example 267, N-(4-{[6-Amino-9-(2-phenylethyl)-9H-purin-8-yl]thio}-2-hydroxyphenyl)formamide]",> 25000,
"COc1ccc(I)c(Sc2nc3c(N)ncnc3n2CCc2ccc(I)cc2)c1 [Example 310, 8-[(2-Iodo-5-methoxyphenyl)thio]-9-[2-(4-iodophenyl)ethyl]-9H-purin-6-amine]",> 25000,
"Nc1ncnc2c1nc(Sc1cc3c(cc1Br)OCO3)n2CCC1CCN(C(=O)C2CC2)CC1 [Example 514, 8-[(6-Bromo-1,3-benzodioxol-5-yl)thio]-9-{2-[1-(cyclopropylcarbonyl)piperidin-4-yl]ethyl}-9 H-purin-6-amine]",110,
"Nc1ncn(CCc2ccccc2)c2nc(Sc3cc4c(cc3I)OCO4)nc1-2 [Example 34, 8-(6-iodo-benzo[1,3]dioxol-5-ylsulfanyl)-3-phenethyl-3H-purin-6-ylamine]",> 10000,
"COCC(=O)N1CCC(CCn2c(Sc3cc4c(cc3Br)OCO4)nc3c(N)ncnc32)CC1 [Example 722, 8-[(6-Bromo-1,3-benzodioxol-5-yl)thio]-9-{2-[1-(methoxyacetyl)piperidin-4-yl]ethyl}-9H-purin-6-amine]",130,
"COc1ccc(OC)c(Sc2nc3c(N)ncn(CCc4ccccn4)c-3n2)c1 [Example 136, 8-(2,5-Dimethoxy-phenylsulfanyl)-3-(2-pyridin-2-yl-ethyl)-3H-purin-6-ylamine]",,16
"Nc1ncn(CCC2CCNCC2)c2nc(Sc3cc4c(cc3Br)OCO4)nc1-2 [Example 468, 8-[(6-Bromo-1,3-benzodioxol-5-yl)thio]-3-(2-piperidin-4-ylethyl)-3 H-purin-6-amine]",,9
